Test results: ChEMBL document CHEMBL1154859, “Structure of aldehyde reductase in ternary complex with a 5-arylidene-2,4-thiazolidinedione aldose reductase inhibitor” (Eur J Med Chem, 2010)

What was measured:
[1] = Ratio of IC50 for pig ALR1 to IC50 for calf ALR2
[2] = target: T1, Aldo-keto reductase family 1 member A1 (Sus scrofa, UniProt P50578); assay: Inhibition of pig ALR1 assessed as decrease in NADPH absorbance by spectrophotometry
T1 sequence (P50578 whole entry): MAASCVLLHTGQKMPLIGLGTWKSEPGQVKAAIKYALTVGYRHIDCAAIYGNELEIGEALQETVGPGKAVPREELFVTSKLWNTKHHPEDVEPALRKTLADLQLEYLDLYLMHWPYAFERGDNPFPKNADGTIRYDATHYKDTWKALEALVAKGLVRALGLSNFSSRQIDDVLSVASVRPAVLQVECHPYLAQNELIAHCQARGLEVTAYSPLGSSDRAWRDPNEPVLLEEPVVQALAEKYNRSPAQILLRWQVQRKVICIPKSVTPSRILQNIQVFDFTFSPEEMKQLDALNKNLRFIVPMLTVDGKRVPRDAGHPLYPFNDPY

COc1ccc(/C=C2\SC(=O)N(CC(=O)O)C2=O)cc1O
Ratio IC50 [1]: 56 | IC50 [2]: 37 µM
